Here are results for 35 compounds from patent US20240166641A1, “HETEROCYCLES AND USES THEREOF” (Kumquat Biosciences Inc., priority 2021, published 2024).

One test deals with T1, PTPN2 (Homo sapiens, UniProt P17706).
T1 sequence (P17706 1-415): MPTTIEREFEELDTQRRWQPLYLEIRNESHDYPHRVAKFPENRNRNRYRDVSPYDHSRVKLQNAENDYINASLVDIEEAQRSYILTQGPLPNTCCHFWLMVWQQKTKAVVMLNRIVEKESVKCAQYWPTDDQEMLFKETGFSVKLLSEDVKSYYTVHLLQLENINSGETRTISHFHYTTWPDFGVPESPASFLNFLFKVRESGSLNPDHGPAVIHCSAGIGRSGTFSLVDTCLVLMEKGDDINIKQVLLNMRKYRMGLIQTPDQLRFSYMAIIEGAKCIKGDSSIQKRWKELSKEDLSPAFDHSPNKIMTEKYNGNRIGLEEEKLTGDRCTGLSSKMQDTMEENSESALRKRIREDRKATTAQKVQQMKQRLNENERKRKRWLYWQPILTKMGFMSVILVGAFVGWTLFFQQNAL
Description: Phosphatase activity assay (Bio-Biochem-DiFMUP), PTPN2. Format: biochemical. Particulars: DiFMUP substrate, room temperature. The source says: (§1) The selectivity and potency of a small molecule PTPN2 inhibitor as provided herein (e.g., a derivative of Formula I, II, III, IV; or sub-formulae thereof) against one or more protein tyrosine phosphatase (PTP) enzymes, and specifically against PTPN2, can be assessed in various ways. The one or more PTP enzymes comprise Mycobacterium protein tyrosine phosphatase A (mPTPA), Mycobacterium protein tyrosine phosphatase B (mPTPB), PTPN1 (i.e., PTP1B), PTPN2 (i.e., TC-PTP), SHP-1, SHP-2, FAP-1, Meg2, HePTP, Laforin, VHX, VHR, LMWPTP, Cdcl4A, LAR, CD45, PTPRG, a fragment thereof, a variant thereof, and a combination thereof. Selectivity and potency of a small molecule PTPN2 inhibitor is evaluated using a PTP activity inhibition assay. The assay is performed using a buffer comprising 50 millimolar (mM) Bis-Tris (pH=6.3), 2 mM EDTA, and 5 mM N,N′-dimethyl-N,N′-bis(mercaptoacetyl)hydrazine (DMH). The assay is performed using a phosphated substrate, e.g., 10 mM fluorescein diphosphate (FDP) that is stored at −20° C. Alternatively or in addition to, the assay is performed using 10 mM DiFMUP as a phosphated substrate. Each PTP enzyme is diluted in an enzyme dilution buffer comprising 50 mM Bis-Tris (pH=6.3), 2 mM EDTA, 5 mM DMH, 20% (vol./vol.) glycerol, and 0.01% (vol./vol.) Triton X-100.
(§2) The assay is carried out at room temperature in 96 well plates. A reaction mixture of 170 microliter (μL) of the assay buffer comprising 10 μM FDP or DiFMIUP is added to each well. A 10 μL volume of (i) a compound disclosed herein (e.g., PTPN2 inhibitor) dissolved in DMSO at one of 10 concentrations from a serial dilution or (ii) DMSO alone for control is added to each well. The reaction is initiated by adding 20 μL of a PTP enzyme (e.g., PTPN2) that is diluted in the enzyme dilution buffer. The phosphatase activity of the PTP enzyme is assessed by monitoring appearance of a fluorescent product (e.g., fluorescein monophosphate (FMP) from FDP, or 6,8-difluoro-7-hydroxyl-4-coumarin (DiFMU) from DiFMUP) continuously for about 15 to 30 minutes, using the SpectraMax® Gemini™ XPS Microplate Spectrofluorometer (Molecular Devices®) with excitation of 440 nm and emission at 530 nm (cutoff filter at 525 nm) for FMP and excitation at 360 nm and emission at 450 nm (cutoff filter at 435 nm) for DiFMU. The rate (e.g., the initial rate) of FMP or DiFMU formation is plotted against the concentration of the small molecule PTPN2 inhibitor, and the data is fitted (e.g., using a 4-parameter equation) to determine the inflection point of the fit as the IC50 of the small molecule PTPN2 inhibitor for a specific enzyme. Table 6 summarizes the IC50 values of compounds disclosed herein against PTPN2 and PTPN1.

Another test concerns the target T2, PTP1B (Homo sapiens, UniProt P18031).
T2 sequence (P18031 1-435): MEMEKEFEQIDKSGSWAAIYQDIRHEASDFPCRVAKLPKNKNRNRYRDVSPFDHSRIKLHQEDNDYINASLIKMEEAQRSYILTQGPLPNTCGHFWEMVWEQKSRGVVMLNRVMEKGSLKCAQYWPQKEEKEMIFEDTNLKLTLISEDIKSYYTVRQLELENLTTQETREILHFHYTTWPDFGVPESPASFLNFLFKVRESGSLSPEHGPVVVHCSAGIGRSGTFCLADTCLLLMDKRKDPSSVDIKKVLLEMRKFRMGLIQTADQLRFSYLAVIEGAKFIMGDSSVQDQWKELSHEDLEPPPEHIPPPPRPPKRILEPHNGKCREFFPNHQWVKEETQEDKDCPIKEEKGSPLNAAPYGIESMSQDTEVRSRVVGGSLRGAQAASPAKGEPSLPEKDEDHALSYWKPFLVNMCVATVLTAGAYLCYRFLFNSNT
In words: Phosphatase activity assay (Bio-Biochem-DiFMUP), PTP1B. Particulars: DiFMUP substrate, room temperature. Type of test: biochemical.
Excerpt: as §1, §2

Molecules are shown by their SMILES.

As for `O=C1C=C(c2cc3cc(Cl)cnc3cc2O)S(=O)(=O)N1` [Compound 107], the IC50 was greater than 10000 nM on PTPN2 and 1000 to 10000 nM on PTP1B.

In the case of `CC(C)CCCN1CCc2cc(O)c(N3CC(=O)NS3(=O)=O)cc2C1=O` [Compound 105], the IC50 at PTPN2 was 1000 to 10000 nM; on PTP1B it was greater than 10000 nM.

Regarding `CC(C)CCNC(=O)c1cc2cc(N3CC(=O)NS3(=O)=O)c(O)cc2s1` [Compound 132], the IC50 at PTPN2 and on PTP1B was no more than 1000 nM in each case.

On to `CC(C)OCCNc1ccc2cc(O)c(N3CC(=O)NS3(=O)=O)cc2n1` [Compound 138], for which the IC50 at PTPN2 and on PTP1B was no more than 1000 nM in each case.

Consider `Cn1c(=O)c(NCCCC#N)cc2cc(N3CC(=O)NS3(=O)=O)c(O)cc21` [Compound 148], for which the IC50 on PTPN2 and at PTP1B was no more than 1000 nM in each case.

Take `CN1CC=C(c2cnc3cc(O)c(C4=CC(=O)NS4(=O)=O)cc3c2)CC1` [Compound 114]: the IC50 on PTPN2 and at PTP1B was greater than 10000 nM each time.

As for `CCN1CCC(CNc2cc3cc(N4CC(=O)NS4(=O)=O)c(O)cc3n(C)c2=O)CC1` [Compound 171], the IC50 at PTPN2 and at PTP1B was no more than 1000 nM each time.

Take `CC(C)CCOc1cc2cc(N3CC(=O)NS3(=O)=O)c(O)cc2n(C)c1=O` [Compound 160]: the IC50 at PTPN2 and at PTP1B was no more than 1000 nM throughout.

`C[C@@H](Nc1cc2cc(N3CC(=O)NS3(=O)=O)c(O)cc2n(C)c1=O)c1ccccc1` [Compound 162]: the IC50 at PTPN2 and on PTP1B was no more than 1000 nM in each case.

In the case of `Cn1c(=O)c(NCCC2CCCC2)cc2c(F)c(N3CC(=O)NS3(=O)=O)c(O)cc21` [Compound 179], the IC50 at PTPN2 and on PTP1B was no more than 1000 nM throughout.

On to `N#CCCCOc1ccc2cc(O)c(N3CC(=O)NS3(=O)=O)cc2n1` [Compound 175], for which the IC50 on PTPN2 and at PTP1B was no more than 1000 nM throughout.

Turning to `CC(C)CN(C)Cc1cc(=O)n2cc(O)c(C3=CC(=O)NS3(=O)=O)cc2c1` [Compound 122], the IC50 at PTPN2 and on PTP1B was greater than 10000 nM throughout.

Turning to `COc1cc2c(cc1N1CC(=O)NS1(=O)=O)C(=O)N(C)CC2` [Compound 101], the IC50 on PTPN2 and at PTP1B was greater than 10000 nM each time.

With `Cn1c(=O)c(NCCC2CCCCC2)cc2cc(N3CC(=O)NS3(=O)=O)c(O)cc21` [Compound 141], the IC50 on PTPN2 and at PTP1B was no more than 1000 nM each time.

With `CC(C)CCOc1ccc2cc(O)c(N3CC(=O)NS3(=O)=O)cc2n1` [Compound 182], the IC50 at PTPN2 and on PTP1B was no more than 1000 nM in each case.

`COC(=O)c1cc2cc(N3CC(=O)NS3(=O)=O)c(O)cc2s1` [Compound 103]: the IC50 at PTPN2 and at PTP1B was 1000 to 10000 nM throughout.

Turning to `Cn1c(=O)c(NCCc2ccccc2)cc2cc(N3CC(=O)NS3(=O)=O)c(O)cc21` [Compound 123, 5-(7-hydroxy-1-methyl-2-oxo-3-(phenethylamino)-1,2-dihydroquinolin-6-yl)-1,2,5-thiadiazolidin-3-one 1,1-dioxide], the IC50 on PTPN2 and at PTP1B was no more than 1000 nM in each case.

For the compound `CC(C)CCN(C)c1ccc2cc(O)c(N3CC(=O)NS3(=O)=O)cc2n1` [Compound 121], the IC50 on PTPN2 and at PTP1B was 1000 to 10000 nM throughout.

`O=C1CN(c2cc3nc(OCCc4ccccc4)ccc3cc2O)S(=O)(=O)N1` [Compound 167]: the IC50 on PTPN2 and on PTP1B was no more than 1000 nM each time.

Regarding `CC(C)CCN1Cc2cc(N3CC(=O)NS3(=O)=O)c(O)cc2CC1=O` [Compound 119, 5-(6-hydroxy-2-isopentyl-3-oxo-1,2,3,4-tetrahydroisoquinolin-7-yl)-1,2,5-thiadiazolidin-3-one 1,1-dioxide], the IC50 on PTPN2 and at PTP1B was no more than 1000 nM each time.

Turning to `CN(C)C1CN(c2cc3cc(N4CC(=O)NS4(=O)=O)c(O)cc3n(C)c2=O)C1` [Compound 172], the IC50 at PTPN2 and at PTP1B was 1000 to 10000 nM in each case.

With `O=C1CN(c2cc3cc(C(=O)NCCc4ccccc4)sc3cc2O)S(=O)(=O)N1` [Compound 170], the IC50 at PTPN2 and on PTP1B was no more than 1000 nM in each case.

Consider `CC(C)CCNc1ccc2cc(O)c(C3=CC(=O)NS3(=O)=O)cc2n1` [Compound 106, 5-(6-hydroxy-2-(isopentylamino)quinolin-7-yl)isothiazol-3(2H)-one 1,1-dioxide], for which the figures for the IC50 on PTPN2 and at PTP1B were 1000 to 10000 nM and no more than 1000 nM, respectively.

For the compound `CC(C)CCn1cnc2cc(O)c(N3CC(=O)NS3(=O)=O)cc2c1=O` [Compound 196], the IC50 on PTPN2 and at PTP1B was greater than 10000 nM throughout.

As for `CC(C)CCn1ccc2cc(O)c(N3CC(=O)NS3(=O)=O)c(F)c2c1=O` [Compound 157], the IC50 on PTPN2 and at PTP1B was 1000 to 10000 nM in each case.

As to `Cn1c(=O)c(N2CCCCC2)cc2cc(N3CC(=O)NS3(=O)=O)c(O)cc21` [Compound 169], the IC50 at PTPN2 and on PTP1B was 1000 to 10000 nM in each case.

As for `O=C1CN(c2cc3nc(NCCc4ccccn4)ccc3cc2O)S(=O)(=O)N1` [Compound 126], the IC50 at PTPN2 and on PTP1B was no more than 1000 nM in each case.

On to `CC(C)CCNc1cc2cc(N3CC(=O)NS3(=O)=O)c(O)cc2n(C2CC2)c1=O` [Compound 145], for which the IC50 at PTPN2 and on PTP1B was no more than 1000 nM in each case.

With `CC(C)OCCNc1cc2cc(N3CC(=O)NS3(=O)=O)c(O)cc2n(C)c1=O` [Compound 195], the IC50 on PTPN2 and at PTP1B was no more than 1000 nM each time.

Consider `CC(C)CCNc1ccc2cc(O)c(N3C(C)C(=O)NS3(=O)=O)cc2n1` (stereo not shown) [Compound 137, 5-(6-hydroxy-2-(isopentylamino)quinolin-7-yl)-4-methyl-1,2,5-thiadiazolidin-3-one 1,1-dioxide], for which the IC50 on PTPN2 and on PTP1B was no more than 1000 nM in each case.

In the case of `Cn1c(=O)c(NCCN2CCOCC2)cc2cc(N3CC(=O)NS3(=O)=O)c(O)cc21` [Compound 127], the IC50 at PTPN2 and on PTP1B was no more than 1000 nM in each case.

As for `CC(C)Oc1cc2c(F)c(N3CC(=O)NS3(=O)=O)c(O)cc2n(C)c1=O` [Compound 156], the IC50 on PTPN2 and on PTP1B was no more than 1000 nM in each case.

On to `O=C1CN(c2c(O)cc3ccc(NCCc4ccccc4)nc3c2F)S(=O)(=O)N1` [Compound 125], for which the half-maximal inhibitory concentration (IC50) on PTPN2 and on PTP1B was no more than 1000 nM each time.

Take `O=C1C=C(c2cc3cc(-c4cccnc4)cnc3cc2O)S(=O)(=O)N1` [Compound 115, 5-(7-hydroxy-3-(pyridin-3-yl)quinolin-6-yl)isothiazol-3(2H)-one 1,1-dioxide]: the IC50 is greater than 10000 nM at PTPN2 and 1000 to 10000 nM on PTP1B.

On to `O=C1CN(c2cc3nc(OCCN4CCC4)ccc3cc2O)S(=O)(=O)N1` [Compound 163], for which the IC50 on PTPN2 and at PTP1B was greater than 10000 nM in each case.
